One test deals with T1, LATS2 (Homo sapiens, UniProt Q9NRM7).
T1 sequence (Q9NRM7 1-1088): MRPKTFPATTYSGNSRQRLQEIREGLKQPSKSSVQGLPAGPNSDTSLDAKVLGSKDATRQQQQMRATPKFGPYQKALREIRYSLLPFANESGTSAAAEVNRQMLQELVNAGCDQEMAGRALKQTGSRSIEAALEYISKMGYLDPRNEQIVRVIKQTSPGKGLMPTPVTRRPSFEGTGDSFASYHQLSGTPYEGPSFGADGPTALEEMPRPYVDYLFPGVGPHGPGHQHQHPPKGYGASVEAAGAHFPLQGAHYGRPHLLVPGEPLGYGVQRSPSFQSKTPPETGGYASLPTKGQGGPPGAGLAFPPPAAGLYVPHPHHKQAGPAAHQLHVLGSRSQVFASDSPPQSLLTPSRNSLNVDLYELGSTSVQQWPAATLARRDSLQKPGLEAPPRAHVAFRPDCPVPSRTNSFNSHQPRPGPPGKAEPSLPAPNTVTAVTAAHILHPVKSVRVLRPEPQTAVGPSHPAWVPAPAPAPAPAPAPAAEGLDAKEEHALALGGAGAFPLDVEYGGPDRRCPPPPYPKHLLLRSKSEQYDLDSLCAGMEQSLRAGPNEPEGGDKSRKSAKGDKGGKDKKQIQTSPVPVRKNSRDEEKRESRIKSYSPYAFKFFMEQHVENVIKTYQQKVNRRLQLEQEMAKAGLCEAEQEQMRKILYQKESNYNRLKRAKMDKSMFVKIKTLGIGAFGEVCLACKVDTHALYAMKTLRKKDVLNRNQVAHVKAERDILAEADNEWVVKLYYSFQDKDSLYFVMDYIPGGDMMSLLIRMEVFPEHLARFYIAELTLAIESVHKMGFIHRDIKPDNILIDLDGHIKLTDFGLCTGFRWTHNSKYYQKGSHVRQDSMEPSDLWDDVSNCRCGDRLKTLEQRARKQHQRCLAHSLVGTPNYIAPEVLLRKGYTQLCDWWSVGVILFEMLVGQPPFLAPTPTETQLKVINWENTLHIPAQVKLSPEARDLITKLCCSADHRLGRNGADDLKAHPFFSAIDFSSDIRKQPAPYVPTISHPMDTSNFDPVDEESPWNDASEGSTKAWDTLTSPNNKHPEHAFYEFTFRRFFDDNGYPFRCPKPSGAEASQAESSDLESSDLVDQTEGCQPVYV
In words: Kinase panel 33P-ATP filter assay, LATS2. The following applies: HCl salt tested; ATP Conc. 30 μM (Km); read-out: Compound IC50 (nM) LATS2. Type of test: biochemical. Here is the method:
(§1) The HCl salts of S enantiomer and the R enantiomer of compound A were tested against a panel of kinases.
(§2) Compounds were received as powder and resuspended to 10 mM DMSO stock. Compounds were tested in 10-dose IC50 mode with a 3-fold serial dilution starting at 10 μM. Control compound, staurosporine, was tested in 10-dose IC50 mode with 4-fold serial dilution starting at 20 μM.
(§3) Reaction Conditions: Buffer Conditions: 20 mM HEPES ((4-(2-hydroxyethyl)-1-piperazineethanesulfonic acid; pH 7.5), 10 mM MgCl2, 1 mM EGTA (Ethyleneglycol-bis(p-aminoethyl)-N,N,N′,N′-tetraacetic Acid), 0.01% Brij35, 0.02 mg/ml BSA (Bovine serum albumin), 0.1 mM Na3VO4, 2 mM DTT (Dithiothreitol), 1% DMSO. Reaction Procedure: 1. Prepare indicated substrate in freshly prepared reaction buffer. 2. Deliver required cofactors to the substrate solution above. 3. Deliver indicated kinase into the substrate solution and mix gently. 4. Deliver compounds in DMSO into the kinase reaction mixture utilizing acoustic technology (Echo550). 5. Deliver ^33P-ATP (specific activity 0.01 μCi/μl final) into the reaction mixture to initiate the reaction. 6. Incubate kinase reaction for 120 minutes at room temperature. 7. […] Data Analysis: Kinase activity data were expressed as the percent remaining kinase activity in test samples compared to vehicle (dimethyl sulfoxide) reactions. […]

Another test addresses PKCd (Homo sapiens, UniProt Q05655). In words: Kinase panel 33P-ATP filter assay, PKCd. Type of test: biochemical. The following applies: HCl salt tested; ATP Conc. 10 μM (Km); read-out: Compound IC50 (nM) PKCd. The protocol: as §1, §2, §3
The next test has as its target PKCeta (Homo sapiens, UniProt P24723). In words: Kinase panel 33P-ATP filter assay, PKCeta. The following applies: HCl salt tested; ATP Conc. 15 μM (Km); read-out: Compound IC50 (nM) PKCeta. The class given is biochemical. The protocol:
as §1, §2, §3

A further test concerns the target T2, μ (MOP) (h) (Homo sapiens, UniProt P35372).
T2 construct: expressed in transfected cells; host or cells: CHO cells
In words: CEREP panel mu (MOP) (h) antagonist effect, cAMP HTRF. The following applies: HCl salt tested; CHO cells, DAMGO (10 nM). The class given is cell-based. The text has this:
The use of in vitro pharmacological screening against a diverse range of targets (receptors, ion channels, enzymes and transporters) is used to identify undesirable off-target activity that may cause adverse drug reactions in humans. Screening panels (e.g. SafetyScreen44™ Panel, Eurofins) comprise a selection of off-targets linked with known issues in humans that could hinder or halt the development of drug candidates or market withdrawal if discovered after a drug is approved. The HCl salts of the S enantiomer and the R enantiomer of compound A were tested against a panel of such targets.
The tests were carried out according to the methods described in the following tables and indicated literature references.
(In general: In TR-FRET formats the signal depends on donor and acceptor labels being close together.)

The source of these data is patent US20260078108A1, “SOLID FORMS OF A ROCK INHIBITOR” (REDX PHARMA PLC, priority 2022, published 2026).

What is called IC50 is the point on the concentration scale where inhibition reaches its midpoint.

Each structure is given as a SMILES string.

Sequence of PKCd (Q05655 whole entry, species assumed): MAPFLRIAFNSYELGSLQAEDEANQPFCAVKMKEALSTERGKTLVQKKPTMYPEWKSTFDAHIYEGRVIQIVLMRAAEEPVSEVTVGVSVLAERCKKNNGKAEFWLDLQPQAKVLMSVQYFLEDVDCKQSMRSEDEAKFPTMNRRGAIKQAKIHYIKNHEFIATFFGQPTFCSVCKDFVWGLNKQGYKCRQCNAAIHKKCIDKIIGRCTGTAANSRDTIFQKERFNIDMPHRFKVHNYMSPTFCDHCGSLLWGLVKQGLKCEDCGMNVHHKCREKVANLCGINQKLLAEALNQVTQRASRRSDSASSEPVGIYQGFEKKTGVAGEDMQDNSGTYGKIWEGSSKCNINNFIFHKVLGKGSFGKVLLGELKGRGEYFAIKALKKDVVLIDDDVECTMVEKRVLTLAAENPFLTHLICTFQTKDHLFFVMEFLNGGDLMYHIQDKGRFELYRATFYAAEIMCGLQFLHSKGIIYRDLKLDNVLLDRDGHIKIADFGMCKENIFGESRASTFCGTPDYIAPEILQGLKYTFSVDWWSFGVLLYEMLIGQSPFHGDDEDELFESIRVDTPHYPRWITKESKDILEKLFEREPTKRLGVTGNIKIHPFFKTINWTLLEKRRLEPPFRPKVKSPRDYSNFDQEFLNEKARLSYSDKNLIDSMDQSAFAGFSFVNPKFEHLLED
Sequence of PKCeta (P24723 whole entry): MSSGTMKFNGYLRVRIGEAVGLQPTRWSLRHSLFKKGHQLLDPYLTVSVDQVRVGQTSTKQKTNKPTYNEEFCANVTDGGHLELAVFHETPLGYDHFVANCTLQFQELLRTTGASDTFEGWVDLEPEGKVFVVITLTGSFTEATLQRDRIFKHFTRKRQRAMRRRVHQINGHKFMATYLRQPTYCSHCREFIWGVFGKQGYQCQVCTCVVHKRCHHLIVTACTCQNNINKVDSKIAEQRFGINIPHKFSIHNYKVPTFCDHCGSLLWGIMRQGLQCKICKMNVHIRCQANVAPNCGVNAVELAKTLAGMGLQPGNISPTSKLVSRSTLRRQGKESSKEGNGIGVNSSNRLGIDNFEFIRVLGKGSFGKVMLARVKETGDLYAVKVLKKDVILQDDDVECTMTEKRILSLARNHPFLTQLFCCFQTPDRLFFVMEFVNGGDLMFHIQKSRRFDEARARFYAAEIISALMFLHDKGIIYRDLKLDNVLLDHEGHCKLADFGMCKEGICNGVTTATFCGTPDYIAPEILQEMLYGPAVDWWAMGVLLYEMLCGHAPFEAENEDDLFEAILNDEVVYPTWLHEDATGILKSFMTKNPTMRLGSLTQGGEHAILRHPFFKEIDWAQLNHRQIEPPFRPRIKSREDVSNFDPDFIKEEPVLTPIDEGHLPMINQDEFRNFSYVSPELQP
T2 sequence (P35372 whole entry): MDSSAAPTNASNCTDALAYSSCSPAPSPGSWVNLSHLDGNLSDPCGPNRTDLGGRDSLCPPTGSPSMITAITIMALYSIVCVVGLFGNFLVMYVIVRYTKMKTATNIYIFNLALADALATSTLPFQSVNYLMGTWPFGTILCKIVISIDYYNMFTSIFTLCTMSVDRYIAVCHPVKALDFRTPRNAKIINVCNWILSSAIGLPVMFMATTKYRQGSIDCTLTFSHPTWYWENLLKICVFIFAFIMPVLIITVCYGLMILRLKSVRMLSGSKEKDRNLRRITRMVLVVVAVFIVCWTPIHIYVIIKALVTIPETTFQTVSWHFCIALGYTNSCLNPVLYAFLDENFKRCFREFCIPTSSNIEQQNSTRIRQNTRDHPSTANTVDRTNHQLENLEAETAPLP

On to `NCc1ccc(C(=O)Nc2ccncc2F)cc1-c1cccc(C(=O)Nc2ccc(SC[C@H]3CCOC3=O)cc2)c1` [S-enantiomer], for which the IC50 on LATS2 was determined as 33.3 nM; at PKCd, 0.9 nM; at PKCeta, 0.9 nM. Also, the “mu (MOP) (h) (antagonist effect) (IC50)” value on μ (MOP) (h) was “Inactive”.

For `NCc1ccc(C(=O)Nc2ccncc2F)cc1-c1cccc(C(=O)Nc2ccc(SC[C@@H]3CCOC3=O)cc2)c1` [R-enantiomer], the IC50 at LATS2 was 42.7 nM; at PKCd, < 0.5 nM; on PKCeta, < 0.5 nM. In addition, the “mu (MOP) (h) (antagonist effect) (IC50)” value on μ (MOP) (h) is listed as “Inactive”.
